Reference: ChEMBL document CHEMBL6087422, “A promising class of antiprotozoal agents, design and synthesis of novel Pyrimidine-Cinnamoyl hybrids” (Eur J Med Chem, 2025)
Calls of active or inactive are those of the source. The calls are words filed in the database; no cut-off is given here.

What was measured:
[1] = Haemolytic activity in human RBC assessed as haemolysis at 50 uM for 48 hrs by haemolysis assay; format: toxicity, cell-based, Erythrocyte; details: human red blood cells, read-out: Activity
[2] = tested on: Plasmodium falciparum; assay: Antimalarial activity against chloroquine-sensitive Plasmodium falciparum NF54 assessed as inhibition of parasite growth measured after 24 hrs by parasite lactate dehydrogenase (pLDH) assay; format: functional, organism-based; details: NF54, 24 h
[3] = Selectivity index, ratio of IC50 for cytotoxicity against HEK293 cells to IC50 for antimalarial activity against chloroquine sensitive Plasmodium falciparum NF54 assessed as inhibition of parasite growth measured after 24 hrs by parasite lactate dehydrogenase (pLDH) assay; format: toxicity, cell-based; details: human, HEK293 cells versus Plasmodium falciparum NF54, read-out: Ratio IC50
[4] = Cytotoxicity against HEK293 cells assessed as cell viability incubated for 48 hrs by MTT assay; format: toxicity, cell-based; details: human
[5] = Binding affinity to 6xHis tagged recombinant Plasmodium falciparum Hsp70-1 extracted from Escherichia coli assessed as dissociation rate constant (Kd) incubated for 10 mins by SPR analysis
[6] = tested on: Plasmodium falciparum; assay: Antimalarial activity against chloroquine-sensitive Plasmodium falciparum NF54 assessed as reduction of second generation rings at IC50 concentration incubated for 48 hrs by microscopic analysis; format: functional, organism-based
[7] = tested on: Plasmodium falciparum; assay: Binding affinity to 6xHis tagged recombinant Plasmodium falciparum Hsp70-z extracted from Escherichia coli assessed as association rate constant (Ka) incubated for 3 mins by SPR analysis
[8] = Binding affinity to 6xHis tagged recombinant Plasmodium falciparum Hsp70-1 extracted from Escherichia coli assessed as dissociation constant (KD) incubated for 10 mins by SPR analysis
[9] = Binding affinity to 6xHis tagged recombinant Plasmodium falciparum Hsp70-z extracted from Escherichia coli assessed as dissociation rate constant (Kd) incubated for 10 mins by SPR analysis
[10] = tested on: Plasmodium falciparum; assay: Antimalarial activity against chloroquine-sensitive Plasmodium falciparum NF54 assessed as reduction of schizonts at IC50 concentration incubated for 48 hrs by microscopic analysis; format: functional, organism-based
[11] = tested on: Plasmodium falciparum; assay: Binding affinity to 6xHis tagged recombinant Plasmodium falciparum Hsp70-1 extracted from Escherichia coli assessed as association rate constant (Ka) incubated for 3 mins by SPR analysis
[12] = tested on: Plasmodium falciparum; assay: Binding affinity to 6xHis tagged recombinant Plasmodium falciparum Hsp70-1 extracted from Escherichia coli by SPR analysis
[13] = Binding affinity to 6xHis tagged recombinant Plasmodium falciparum Hsp70-z extracted from Escherichia coli assessed as dissociation constant (KD) incubated for 10 mins by SPR analysis
[14] = tested on: Plasmodium falciparum; assay: Binding affinity to 6xHis tagged recombinant Plasmodium falciparum Hsp70-z extracted from Escherichia coli by SPR analysis
[15] = tested on: Plasmodium berghei; assay: In vivo antiplasmodial activity against Plasmodium berghei assessed as growth inhibition at 100 mg/kg measured after 21 days relative to control; format: functional; parameters: scale not given: the % may be the effect or the level left; details: time 21 day
[16] = tested on: Plasmodium falciparum; assay: Antimalarial activity against chloroquine-resistant intra-erythrocytic stage Plasmodium falciparum; format: functional, organism-based
[17] = tested on: Plasmodium falciparum; assay: Antimalarial activity against […] Plasmodium falciparum 3D7 assessed as growth inhibition by isotopic micro drug susceptibility assay; format: functional, organism-based
[18] = tested on: Plasmodium falciparum; assay: Antimalarial activity against chloroquine-sensitive Plasmodium falciparum W2 assessed as growth inhibition by isotopic micro drug susceptibility assay; format: functional, organism-based

Structure (SMILES): COc1ccc(-c2cc(-c3ccc(OC)cc3)nc(N3CCN(C(=O)/C=C/c4ccc(Cl)cc4)CC3)n2)cc1
- hemolysis at 48 h, 50 µM [1]: 0.01%
- IC50 [2]: 2710 nM

Structure (SMILES): COc1ccc(-c2cc(-c3ccc(C)cc3)nc(N3CCN(C(=O)/C=C/c4ccc(C)cc4)CC3)n2)cc1
- hemolysis at 48 h, 50 µM [1]: 0.01%
- IC50 [2]: 2330 nM

Structure (SMILES): COc1ccc(-c2cc(-c3ccc(C)cc3)nc(N3CCN(C(=O)/C=C/c4ccc(OC)c(OC)c4)CC3)n2)cc1
- hemolysis at 48 h, 50 µM [1]: 0.01%
- selectivity ratio at 24 h [3]: 1.54
- IC50 at 48 h [4]: 930 nM
- IC50 [2]: 600 nM

Structure (SMILES): COc1ccc(-c2cc(-c3ccc(OC)cc3)nc(N3CCN(C(=O)/C=C/c4ccccc4)CC3)n2)cc1
- hemolysis at 48 h, 50 µM [1]: 0.01%
- IC50 [2]: 4090 nM

Structure (SMILES): COc1ccc(-c2cc(-c3ccc(C)cc3)nc(N3CCN(C(=O)/C=C/c4ccccc4)CC3)n2)cc1
- hemolysis at 48 h, 50 µM [1]: 0.01%
- IC50 [2]: 2720 nM

Structure (SMILES): CCc1ccc(-c2cc(-c3ccc(OC)c(OC)c3)nc(N3CCN(C(=O)/C=C/c4ccc[nH]4)CC3)n2)cc1
- hemolysis at 48 h, 50 µM [1]: 0.01%
- IC50 [2]: 720 nM

Structure (SMILES): Cc1ccc(/C=C/C(=O)N2CCN(c3nc(-c4ccc(Cl)cc4)cc(-c4cccnc4)n3)CC2)cc1
- hemolysis at 48 h, 50 µM [1]: 0.01%
- IC50 [2]: 3670 nM

Structure (SMILES): CCc1ccc(-c2cc(-c3ccc(OC)c(OC)c3)nc(N3CCN(C(=O)/C=C/c4ccccc4)CC3)n2)cc1
- hemolysis at 48 h, 50 µM [1]: 0.01%
- Kd [5]: 7.72 10^-2(1/s)
- selectivity ratio at 24 h [3]: 16.8
- Activity [6]: Active
- Ka [7]: 8.28 10^6/M.s
- Kd [8]: 9.69 nM
- Kd [9]: 8.97 10^-2(1/s)
- Activity [10]: Active
- IC50 at 48 h [4]: 3550 nM
- Ka [11]: 7.97 10^6/M.s
- IC50 [2]: 210 nM
- Activity [12]: Dose-dependent-effect
- Kd [13]: 10.8 nM
- Activity [14]: Dose-dependent-effect

Structure (SMILES): COc1cc(/C=C/C(=O)CC(=O)/C=C/c2ccc(O)c(OC)c2)ccc1O [CURCUMIN]
- Activity [15]: 100%
- IC50 [16]: ~5000 nM

Structure (SMILES): O=C(/C=C/c1ccccc1)N1CCN(c2nc(-c3cccnc3)cc(-c3ccoc3)n2)CC1
- hemolysis at 48 h, 50 µM [1]: 0.01%
- IC50 [2]: 5000 nM

Structure (SMILES): CCc1ccc(-c2cc(-c3ccc(OC)c(OC)c3)nc(N3CCN(C(=O)/C=C/c4ccc(OC)cc4)CC3)n2)cc1
- hemolysis at 48 h, 50 µM [1]: 0.01%
- Kd [5]: 9.29 10^-2(1/s)
- selectivity ratio at 24 h [3]: 18.6
- Activity [6]: Active
- Ka [7]: 6.24 10^6/M.s
- Kd [8]: 1.57 nM
- Kd [9]: 9.79 10^-2(1/s)
- Activity [10]: Active
- IC50 at 48 h [4]: 3360 nM
- Ka [11]: 5.92 10^6/M.s
- IC50 [2]: 180 nM
- Activity [12]: Dose-dependent-effect
- Kd [13]: 15.7 nM
- Activity [14]: Dose-dependent-effect

Structure (SMILES): COc1ccc(-c2cc(-c3ccc(OC)cc3)nc(N3CCN(C(=O)/C=C/c4ccc(OC)c(OC)c4)CC3)n2)cc1
- hemolysis at 48 h, 50 µM [1]: 0.01%
- IC50 [2]: 5000 nM

Structure (SMILES): COc1ccc(/C=C/C(=O)N2CCN(c3nc(-c4ccc(OC)cc4)cc(-c4ccc(OC)cc4)n3)CC2)cc1
- hemolysis at 48 h, 50 µM [1]: 0.01%
- IC50 [2]: 5000 nM

Structure (SMILES): C=C[C@H]1CN2CC[C@H]1C[C@H]2[C@H](O)c1ccnc2ccc(OC)cc12 [QUININE]
- hemolysis at 48 h, 50 µM [1]: 0.01%
- selectivity ratio at 24 h [3]: 1240
- IC50 [2]: 110 nM

Structure (SMILES): CO[C@H]1/C=C/O[C@@]2(C)Oc3c(C)c(O)c4c(O)c(c(/C=N/N5CCN(C)CC5)c(O)c4c3C2=O)NC(=O)/C(C)=C\C=C\[C@H](C)[C@H](O)[C@@H](C)[C@@H](O)[C@@H](C)[C@H](OC(C)=O)[C@@H]1C [RIFAMPIN]
- IC50 [17]: 3200 nM
- IC50 [18]: 1300 nM

Structure (SMILES): CCc1ccc(-c2cc(-c3ccc(OC)c(OC)c3)nc(N3CCN(C(=O)/C=C/c4ccc(Cl)cc4)CC3)n2)cc1
- hemolysis at 48 h, 50 µM [1]: 0.01%
- selectivity ratio at 24 h [3]: 4.34
- IC50 at 48 h [4]: 870 nM
- IC50 [2]: 200 nM

Structure (SMILES): CCN(CC)CCCC(C)Nc1ccnc2cc(Cl)ccc12 (configuration not stated) [CHLOROQUINE]
- hemolysis at 48 h, 50 µM [1]: 0.01%

Structure (SMILES): CCc1ccc(-c2cc(-c3ccc(OC)c(OC)c3)nc(N3CCN(C(=O)/C=C/c4ccc(C)cc4)CC3)n2)cc1
- hemolysis at 48 h, 50 µM [1]: 0.01%
- IC50 [2]: 1560 nM

Structure (SMILES): COc1ccc(-c2cc(-c3ccc(C)cc3)nc(N3CCN(C(=O)/C=C/c4ccc(Cl)cc4)CC3)n2)cc1
- hemolysis at 48 h, 50 µM [1]: 0.01%
- IC50 [2]: 1720 nM

Structure (SMILES): COc1ccc(-c2cc(-c3ccc(C)cc3)nc(N3CCNCC3)n2)cc1
- hemolysis at 48 h, 50 µM [1]: 0.01%
- IC50 [2]: 5000 nM

Structure (SMILES): COc1ccc(-c2cc(-c3ccc(OC)cc3)nc(N3CCN(C(=O)/C=C/c4ccc[nH]4)CC3)n2)cc1
- hemolysis at 48 h, 50 µM [1]: 0.01%
- selectivity ratio at 24 h [3]: 0.5
- IC50 at 48 h [4]: 3690 nM
- IC50 [2]: 7430 nM

Structure (SMILES): COc1ccc(-c2cc(-c3ccc(Cl)cc3)nc(N3CCN(C(=O)/C=C/c4ccccc4)CC3)n2)cc1
- hemolysis at 48 h, 50 µM [1]: 0.01%
- IC50 [2]: 6020 nM

Structure (SMILES): COc1ccc(-c2cc(-c3ccc(OC)cc3)nc(N3CCN(C(=O)/C=C/c4ccc(C)cc4)CC3)n2)cc1
- hemolysis at 48 h, 50 µM [1]: 0.01%
- IC50 [2]: 3580 nM

Structure (SMILES): CC[C@@]1(O)C(=O)OCc2c1cc1n(c2=O)Cc2cc3ccccc3nc2-1 [CAMPTOTHECIN]
- IC50 at 48 h [4]: 200 nM
